According to US20100144733A1, “Compounds, compositions and methods comprising heteroaromatic derivatives” (Institute for OneWorld Health, priority 2008, published 2010):

Target: T1, CFTR (Homo sapiens, UniProt P13569)
T1 construct: endogenous in cells; host or cells: T84 human colonic cells (ECACC)
Assay: T84 assay (FLIPR membrane potential dye, forskolin/IBMX-stimulated CFTR channel activity)
Type: cell-based
Conditions: oxadiazole-containing compounds (a series), average of at least 2 runs unless annotated n = 1, read-out: IC50
Procedure, shortened: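 Fluorescence from a membrane potential dye in T84 monolayers (HBSS with 10 mM Hepes) is followed each second for 150 s. Cells are exposed to test compound during the 45 min dye loading, then challenged with forskolin (10 μM) and IBMX (100 μM) to open CFTR. Inhibitors suppress the depolarization-driven fluorescence increase.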

T1 sequence (P13569 whole entry): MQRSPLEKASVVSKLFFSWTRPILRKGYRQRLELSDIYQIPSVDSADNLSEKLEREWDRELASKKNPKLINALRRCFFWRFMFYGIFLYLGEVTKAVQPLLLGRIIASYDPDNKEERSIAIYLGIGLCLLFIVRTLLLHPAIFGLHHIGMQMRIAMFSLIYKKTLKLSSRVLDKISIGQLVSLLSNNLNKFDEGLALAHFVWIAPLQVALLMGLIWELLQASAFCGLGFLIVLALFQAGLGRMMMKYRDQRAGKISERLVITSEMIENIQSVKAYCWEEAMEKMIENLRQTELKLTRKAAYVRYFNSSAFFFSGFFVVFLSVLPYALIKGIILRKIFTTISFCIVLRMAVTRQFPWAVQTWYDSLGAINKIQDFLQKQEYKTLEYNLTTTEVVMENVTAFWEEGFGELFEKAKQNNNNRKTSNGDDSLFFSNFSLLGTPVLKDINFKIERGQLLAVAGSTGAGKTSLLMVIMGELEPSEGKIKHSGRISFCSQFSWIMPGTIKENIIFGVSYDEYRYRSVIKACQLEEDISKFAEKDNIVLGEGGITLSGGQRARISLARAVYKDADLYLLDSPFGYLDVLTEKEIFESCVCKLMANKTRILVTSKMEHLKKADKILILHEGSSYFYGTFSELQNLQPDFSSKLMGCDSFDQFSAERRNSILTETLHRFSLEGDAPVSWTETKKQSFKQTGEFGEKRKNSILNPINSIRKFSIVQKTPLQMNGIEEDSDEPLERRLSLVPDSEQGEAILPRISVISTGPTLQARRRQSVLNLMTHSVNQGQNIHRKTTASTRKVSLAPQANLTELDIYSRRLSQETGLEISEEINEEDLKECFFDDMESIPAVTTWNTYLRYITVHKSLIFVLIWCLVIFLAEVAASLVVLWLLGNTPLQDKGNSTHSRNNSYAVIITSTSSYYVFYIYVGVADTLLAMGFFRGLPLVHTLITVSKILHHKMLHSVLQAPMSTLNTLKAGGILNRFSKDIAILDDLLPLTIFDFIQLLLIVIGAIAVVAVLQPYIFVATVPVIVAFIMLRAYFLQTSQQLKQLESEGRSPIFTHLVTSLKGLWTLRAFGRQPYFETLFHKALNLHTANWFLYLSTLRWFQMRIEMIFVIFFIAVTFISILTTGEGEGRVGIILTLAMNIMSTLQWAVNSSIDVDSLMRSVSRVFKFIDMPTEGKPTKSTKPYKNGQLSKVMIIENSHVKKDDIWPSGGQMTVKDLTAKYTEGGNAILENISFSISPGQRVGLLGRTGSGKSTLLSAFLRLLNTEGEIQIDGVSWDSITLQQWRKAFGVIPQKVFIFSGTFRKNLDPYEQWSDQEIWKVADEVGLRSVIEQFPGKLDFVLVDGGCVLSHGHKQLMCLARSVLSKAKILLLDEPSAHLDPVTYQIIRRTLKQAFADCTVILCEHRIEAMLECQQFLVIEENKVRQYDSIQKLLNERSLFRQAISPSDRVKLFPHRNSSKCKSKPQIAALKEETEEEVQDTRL

## CN(Cc1ccc(C(F)(F)F)cc1)C(=O)c1nc(-c2cc(Cl)c(O)c(Cl)c2)no1 [138a, 3-(3,5-dichloro-4-hydroxyphenyl)-N-methyl-N-(4-(trifluoromethyl)benzyl)-1,2,4-oxadiazole-5-carboxamide]
  IC50: 3.84 µM

## CN(Cc1cccc(C(F)(F)F)c1)C(=O)c1nc(-c2cc(Cl)c(O)c(Cl)c2)no1 [139a, 3-(3,5-dichloro-4-hydroxyphenyl)-N-methyl-N-(3-(trifluoromethyl)benzyl)-1,2,4-oxadiazole-5-carboxamide]
  IC50: 5.1 µM

## CCN(Cc1ccccc1)C(=O)c1nc(-c2cc(Cl)c(O)c(Cl)c2)no1 [140a, N-benzyl-3-(3,5-dichloro-4-hydroxyphenyl)-N-ethyl-1,2,4-oxadiazole-5-carboxamide]
  IC50: 19.9 µM

## O=C(NCc1cccc(OCc2ccccc2)c1)c1nc(-c2cc(Cl)c(O)c(Cl)c2)no1 [141a, N-(3-(benzyloxy)benzyl)-3-(3,5-dichloro-4-hydroxyphenyl)-1,2,4-oxadiazole-5-carboxamide]
  IC50: 7.79 µM

## CN(Cc1ccc(Oc2ccccc2)cc1)C(=O)c1nc(-c2cc(Cl)c(O)c(Cl)c2)no1 [142a, 3-(3,5-dichloro-4-hydroxyphenyl)-N-methyl-N-(4-phenoxybenzyl)-1,2,4-oxadiazole-5-carboxamide]
  IC50: 10.2 µM

## CC(NC(=O)c1nc(-c2cc(Cl)c(O)c(Cl)c2)no1)c1ccc(Br)cc1 (stereo not drawn) [143a, N-(1-(4-bromophenyl)ethyl)-3-(3,5-dichloro-4-hydroxyphenyl)-1,2,4-oxadiazole-5-carboxamide]
  IC50: 5.15 µM

## CN(Cc1cccc(Oc2ccccc2)c1)C(=O)c1nc(-c2cc(Cl)c(O)c(Cl)c2)no1 [144a, 3-(3,5-dichloro-4-hydroxyphenyl)-N-methyl-N-(3-phenoxybenzyl)-1,2,4-oxadiazole-5-carboxamide]
  IC50: 6.33 µM

## O=C(NCc1cccc(Oc2ccccc2)c1)c1nc(-c2cc(Cl)c(O)c(Cl)c2)no1 [145a, 3-(3,5-dichloro-4-hydroxyphenyl)-N-(3-phenoxybenzyl)-1,2,4-oxadiazole-5-carboxamide]
  IC50: 9.87 µM

## O=C(NCc1ccc(F)c(C(F)(F)F)c1)c1nc(-c2cc(Cl)c(O)c(Cl)c2)no1 [146a, 3-(3,5-dichloro-4-hydroxyphenyl)-N-(4-fluoro-3-(trifluoromethyl)benzyl)-1,2,4-oxadiazole-5-carboxamide]
  IC50: 11.2 µM

## O=C(NCc1cccc(-c2ncccn2)c1)c1nc(-c2cc(Cl)c(O)c(Cl)c2)no1 [147a, 3-(3,5-dichloro-4-hydroxyphenyl)-N-(3-(pyrimidin-2-yl)benzyl)-1,2,4-oxadiazole-5-carboxamide]
  IC50: 29.9 µM

## CN(Cc1ccc(C(C)(C)C)cc1)C(=O)c1nc(-c2cc(Cl)c(O)c(Cl)c2)no1 [148a, N-(4-tert-butylbenzyl)-3-(3,5-dichloro-4-hydroxyphenyl)-N-methyl-1,2,4-oxadiazole-5-carboxamide]
  IC50: 8.26 µM

## CC(NC(=O)c1nc(-c2cc(Cl)c(O)c(Cl)c2)no1)c1ccc(Cl)cc1 (stereo not drawn) [149a, N-(1-(4-chlorophenyl)ethyl)-3-(3,5-dichloro-4-hydroxyphenyl)-1,2,4-oxadiazole-5-carboxamide]
  IC50: 6.7 µM

## CCc1ccc(CN(C)C(=O)c2nc(-c3cc(Cl)c(O)c(Cl)c3)no2)cc1 [150a, 3-(3,5-dichloro-4-hydroxyphenyl)-N-(4-ethylbenzyl)-N-methyl-1,2,4-oxadiazole-5-carboxamide]
  IC50: 6.25 µM

## CC(C)(C)C(=O)CN(Cc1ccccc1)C(=O)c1nc(-c2cc(Cl)c(O)c(Cl)c2)no1 [151a, N-benzyl-3-(3,5-dichloro-4-hydroxyphenyl)-N-(3,3-dimethyl-2-oxobutyl)-1,2,4-oxadiazole-5-carboxamide]
  IC50: 6.24 µM

## CC(C)(C)C(=O)CN(Cc1ccc(F)c(F)c1)C(=O)c1nc(-c2cc(Cl)c(O)c(Cl)c2)no1 [152a, 3-(3,5-dichloro-4-hydroxyphenyl)-N-(3,4-difluorobenzyl)-N-(3,3-dimethyl-2-oxobutyl)-1,2,4-oxadiazole-5-carboxamide]
  IC50: 8.88 µM

## O=C(NCc1ccc(OCc2ccccc2)cc1)c1nc(-c2cc(Cl)c(O)c(Cl)c2)no1 [153a, N-(4-(benzyloxy)benzyl)-3-(3,5-dichloro-4-hydroxyphenyl)-1,2,4-oxadiazole-5-carboxamide]
  IC50: 2.99 µM

## O=C(NCc1cc(F)cc(C(F)(F)F)c1)c1nc(-c2cc(Cl)c(O)c(Cl)c2)no1 [154a, 3-(3,5-dichloro-4-hydroxyphenyl)-N-(3-fluoro-5-(trifluoromethyl)benzyl)-1,2,4-oxadiazole-5-carboxamide]
  IC50: 3.89 µM

## O=C(NCc1cc(C(F)(F)F)ccc1F)c1noc(-c2cc(Cl)c(O)c(Cl)c2)n1 [155a, 5-(3,5-dichloro-4-hydroxyphenyl)-N-(2-fluoro-5-(trifluoromethyl)benzyl)-1,2,4-oxadiazole-3-carboxamide]
  IC50: 2.22 µM

## O=C(NCc1ccc(Cn2cccn2)cc1)c1noc(-c2cc(Cl)c(O)c(Cl)c2)n1 [156a, N-(4-((1H-pyrazol-1-yl)methyl)benzyl)-5-(3,5-dichloro-4-hydroxyphenyl)-1,2,4-oxadiazole-3-carboxamide]
  IC50: 20.9 µM

## O=C(NCc1cccc(N2CCCCC2)c1)c1noc(-c2cc(Cl)c(O)c(Cl)c2)n1 [157a, 5-(3,5-dichloro-4-hydroxyphenyl)-N-(3-(piperidin-1-yl)benzyl)-1,2,4-oxadiazole-3-carboxamide]
  IC50: 3.33 µM

## CN(C)c1ccc(CNC(=O)c2noc(-c3cc(Cl)c(O)c(Cl)c3)n2)cc1 [158a, 5-(3,5-dichloro-4-hydroxyphenyl)-N-(4-(dimethylamino)benzyl)-1,2,4-oxadiazole-3-carboxamide]
  IC50: 17.5 µM

## O=C(NCc1ccc(F)c(C(F)(F)F)c1)c1noc(-c2cc(Cl)c(O)c(Cl)c2)n1 [159a, 5-(3,5-dichloro-4-hydroxyphenyl)-N-(4-fluoro-3-(trifluoromethyl)benzyl)-1,2,4-oxadiazole-3-carboxamide]
  IC50: 4.83 µM

## CN(C)c1cccc(CNC(=O)c2noc(-c3cc(Cl)c(O)c(Cl)c3)n2)c1 [160a, 5-(3,5-dichloro-4-hydroxyphenyl)-N-(3-(dimethylamino)benzyl)-1,2,4-oxadiazole-3-carboxamide]
  IC50: 7.26 µM

## O=C(NCc1cccc(-n2cccn2)c1)c1noc(-c2cc(Cl)c(O)c(Cl)c2)n1 [161a, N-(3-(1H-pyrazol-1-yl)benzyl)-5-(3,5-dichloro-4-hydroxyphenyl)-1,2,4-oxadiazole-3-carboxamide]
  IC50: 6.21 µM

## O=C(c1nc(-c2cc(Cl)c(O)c(Cl)c2)no1)N(Cc1cccnc1)Cc1cccnc1 [162a, 3-(3,5-dichloro-4-hydroxyphenyl)-N,N-bis(pyridin-3-ylmethyl)-1,2,4-oxadiazole-5-carboxamide]
  IC50: 9.24 µM

## O=C(NCc1cccc(OC(F)F)c1)c1noc(-c2cc(Cl)c(O)c(Cl)c2)n1 [163a, 5-(3,5-dichloro-4-hydroxyphenyl)-N-(3-(difluoromethoxy)benzyl)-1,2,4-oxadiazole-3-carboxamide]
  IC50: 11.5 µM

## CC(C)(C)C(=O)CN(Cc1cccc(OC(F)(F)F)c1)C(=O)c1nc(-c2cc(Cl)c(O)c(Cl)c2)no1 [164a, 3-(3,5-dichloro-4-hydroxyphenyl)-N-(3,3-dimethyl-2-oxobutyl)-N-(3-(trifluoromethoxy)benzyl)-1,2,4-oxadiazole-5-carboxamide]
  IC50: 12.9 µM

## CC(C)(C)C(=O)CN(Cc1ccc(Oc2ccccc2)cc1)C(=O)c1nc(-c2cc(Cl)c(O)c(Cl)c2)no1 [165a, 3-(3,5-dichloro-4-hydroxyphenyl)-N-(3,3-dimethyl-2-oxobutyl)-N-(4-phenoxybenzyl)-1,2,4-oxadiazole-5-carboxamide]
  IC50: 11.5 µM

## O=C(NCc1ccc(N2CCCCC2)cc1)c1nc(-c2cc(Cl)c(O)c(Cl)c2)no1 [166a, 3-(3,5-dichloro-4-hydroxyphenyl)-N-(4-(piperidin-1-yl)benzyl)-1,2,4-oxadiazole-5-carboxamide]
  IC50: 6.21 µM

## O=C(c1nc(-c2cc(Cl)c(O)c(Cl)c2)no1)N(Cc1ccccc1)Cc1cccnc1 [167a, N-benzyl-3-(3,5-dichloro-4-hydroxyphenyl)-N-(pyridin-3-ylmethyl)-1,2,4-oxadiazole-5-carboxamide]
  IC50: 9.61 µM

## O=C(c1nc(-c2cc(Cl)c(O)c(Cl)c2)no1)N(Cc1ccc(Oc2ccccc2)cc1)Cc1cccnc1 [168a, 3-(3,5-dichloro-4-hydroxyphenyl)-N-(4-phenoxybenzyl)-N-(pyridin-3-ylmethyl)-1,2,4-oxadiazole-5-carboxamide]
  IC50: 2.11 µM

## C=CCN(Cc1cccc(OC(F)(F)F)c1)C(=O)c1nc(-c2cc(Cl)c(O)c(Cl)c2)no1 [169a, N-allyl-3-(3,5-dichloro-4-hydroxyphenyl)-N-(3-(trifluoromethoxy)benzyl)-1,2,4-oxadiazole-5-carboxamide]
  IC50: 2.95 µM

## C=CCN(Cc1ccc(F)c(F)c1)C(=O)c1nc(-c2cc(Cl)c(O)c(Cl)c2)no1 [170a, N-allyl-3-(3,5-dichloro-4-hydroxyphenyl)-N-(3,4-difluorobenzyl)-1,2,4-oxadiazole-5-carboxamide]
  IC50: 3.62 µM

## O=C(NCc1ccc(Oc2ccc(F)cc2)cc1)c1nc(-c2cc(Cl)c(O)c(Cl)c2)no1 [171a, 3-(3,5-dichloro-4-hydroxyphenyl)-N-(4-(4-fluorophenoxy)benzyl)-1,2,4-oxadiazole-5-carboxamide]
  IC50: 7.44 µM

## Cc1cncc(Oc2cccc(CN(C)C(=O)c3nc(-c4cc(Cl)c(O)c(Cl)c4)no3)c2)n1 [172a, 3-(3,5-dichloro-4-hydroxyphenyl)-N-methyl-N-(3-(6-methylpyrazin-2-yloxy)benzyl)-1,2,4-oxadiazole-5-carboxamide]
  IC50: 4.41 µM

## CN(Cc1ccc(Oc2ccccn2)cc1)C(=O)c1nc(-c2cc(Cl)c(O)c(Cl)c2)no1 [173a, 3-(3,5-dichloro-4-hydroxyphenyl)-N-methyl-N-(4-(pyridin-2-yloxy)benzyl)-1,2,4-oxadiazole-5-carboxamide]
  IC50: 12.4 µM
